Laboratory results reported in US9957271B2, “Substituted bicyclic aza-heterocycles and analogues as sirtuin modulators” (GlaxoSmithKline, LLC, priority 2012, dated 2018).

What was measured:
SIRT1 [1] = target: T1, SIRT1 (Homo sapiens, UniProt Q96EB6); assay: TAMRA based mass spectrometry assay of SIRT1 activity; format: biochemical; settings: for Emax: read-out: TAMRA % Fold Act
T1 sequence (Q96EB6 1-747): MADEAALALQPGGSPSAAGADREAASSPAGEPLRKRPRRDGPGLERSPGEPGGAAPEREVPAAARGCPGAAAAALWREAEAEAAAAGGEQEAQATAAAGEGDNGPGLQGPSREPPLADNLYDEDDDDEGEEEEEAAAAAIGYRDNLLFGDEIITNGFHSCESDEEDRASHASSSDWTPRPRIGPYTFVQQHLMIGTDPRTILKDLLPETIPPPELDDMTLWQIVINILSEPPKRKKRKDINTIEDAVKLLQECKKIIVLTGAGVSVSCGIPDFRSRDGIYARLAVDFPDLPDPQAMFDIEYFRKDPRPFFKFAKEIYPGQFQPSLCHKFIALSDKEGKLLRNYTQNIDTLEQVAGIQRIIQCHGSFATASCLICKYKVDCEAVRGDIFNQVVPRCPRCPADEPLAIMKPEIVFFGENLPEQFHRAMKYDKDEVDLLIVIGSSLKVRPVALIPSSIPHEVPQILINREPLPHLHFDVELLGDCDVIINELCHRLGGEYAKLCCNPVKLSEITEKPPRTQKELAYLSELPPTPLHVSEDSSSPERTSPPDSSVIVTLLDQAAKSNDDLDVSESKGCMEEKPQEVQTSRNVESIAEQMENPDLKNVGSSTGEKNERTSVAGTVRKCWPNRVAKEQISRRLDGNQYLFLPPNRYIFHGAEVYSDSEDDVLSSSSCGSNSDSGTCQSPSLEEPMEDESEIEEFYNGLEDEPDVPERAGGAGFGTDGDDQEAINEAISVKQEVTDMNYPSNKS
Outline: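 Recombinant N-terminal His-tagged human SIRT1 (10 nM, E. coli) incubated 25 min at 25 °C with 0.5 μM 5TMR-labelled p53-derived acetyl-peptide and 120 μM βNAD+ in Tris-acetate pH 8 buffer with DTT and 0.05% BSA, compound at varying concentrations. Stopped with formic acid; deacetylated peptide or OAADPR measured by mass spectrometry relative to DMSO controls.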

SIRT1 [2] = target: T1, SIRT1; assay: Trp mass spectrometry assay of SIRT1 activity; format: biochemical; settings: for Emax: read-out: Trp % Fold Act
Outline: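 His-tagged SIRT1 expressed in E. coli BL21(DE3), 10 nM, incubated 25 min at 25° C. with 0.5 μM Ac-RHKK(Ac)W-NH2 peptide and 120 μM βNAD+ in 50 mM HEPES pH 7.5, […], 1 mM DTT, 0.05% BSA; formic acid stop. OAADPR or deacetylated peptide measured by mass spectrometry; EC1.5 and percent maximum activation versus DMSO control.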

[3] = TAMRA peptide substrate, concentration giving 150% activation of SIRT1
[4] = TAMRA peptide substrate, percent maximum fold activation
[5] = Trp peptide substrate, concentration giving 150% activation of SIRT1
[6] = Trp peptide substrate, percent maximum fold activation
[7] = concentration of test compound giving 150% activation of SIRT1, TAMRA peptide substrate
[8] = percent maximum fold activation of SIRT1, TAMRA peptide substrate
[9] = concentration of test compound giving 150% activation of SIRT1, Trp peptide substrate
[10] = percent maximum fold activation of SIRT1, Trp peptide substrate
[11] = TAMRA assay, concentration giving 150% activation of SIRT1
[12] = TAMRA assay, percent maximum fold activation
[13] = Trp assay, concentration giving 150% activation of SIRT1
[14] = Trp assay, percent maximum fold activation

SMILES | TAMRA EC1.5 (μM) (SIRT1 [1]; [7]) | Emax (SIRT1 [1]; [8]) [%] | Trp EC1.5 (μM) (SIRT1 [2]; [9]) | Emax (SIRT1 [2]; [10]) [%] | TAMRA EC1.5 (μM) (SIRT1 [1]; [11]) | Emax (SIRT1 [1]; [12]) [%] | Trp EC1.5 (μM) (SIRT1 [2]; [13]) | Emax (SIRT1 [2]; [14]) [%] | further results
Cc1nc2ccc(-c3ccccc3OC(F)(F)F)nn2c1C(=O)Nc1ccc(F)cn1 [Compound 472] |  |  |  |  |  |  |  |  | TAMRA EC1.5 (SIRT1 [1]; [3]): B (EC1.5 1-25 μM); Emax (SIRT1 [1]; [4]): < 350%; Trp EC1.5 (SIRT1 [2]; [5]): C (EC1.5>25 μM); Emax (SIRT1 [2]; [6]): < 350%
Cc1cc(-c2ccccc2C(F)(F)F)nn2c(C(=O)Nc3cccnn3)cnc12 [Compound 514] |  |  |  |  |  |  |  |  | TAMRA EC1.5 (SIRT1 [1]; [3]): A (EC1.5<1 μM); Emax (SIRT1 [1]; [4]): ≥ 350%; Trp EC1.5 (SIRT1 [2]; [5]): A (EC1.5<1 μM); Emax (SIRT1 [2]; [6]): ≥ 350%
O=C(Nc1nc(CN2CCOCC2)cs1)c1cnc2ccc(-c3ccccc3C(F)F)nn12 [Compound 35] | B (EC1.5 1-25 μM) | < 350 | C (EC1.5>25 μM) | < 350 |  |  |  |  | 
Cc1cccnc1NC(=O)c1cnn2ccc(-c3ccccc3OC(F)(F)F)nc12 [Compound 701] |  |  |  |  | B (EC1.5 1-25 μM) | < 350 | A (EC1.5<1 μM) | ≥ 350 | 
O=C(Nc1ccnc(CN2CCOCC2)n1)c1cnc2ccc(-c3ccccc3C(F)F)nn12 [Compound 38] | B (EC1.5 1-25 μM) | < 350 | C (EC1.5>25 μM) | < 350 |  |  |  |  | 
COc1cccc(NC(=O)c2cnn3ccc(-c4ccccc4OC(F)(F)F)nc23)n1 [Compound 536] |  |  |  |  |  |  |  |  | TAMRA EC1.5 (SIRT1 [1]; [3]): A (EC1.5<1 μM); Emax (SIRT1 [1]; [4]): ≥ 350%; Trp EC1.5 (SIRT1 [2]; [5]): A (EC1.5<1 μM); Emax (SIRT1 [2]; [6]): < 350%
O=C(Nc1cnn2ccc(-c3ccccc3OC(F)(F)F)nc12)c1cscn1 [Compound 785] |  |  |  |  | B (EC1.5 1-25 μM) | ≥ 350 | C (EC1.5>25 μM) | < 350 | 
O=C(Nc1ncccn1)c1cnc2ccc(-c3ccccc3C(F)(F)F)nn12 [Compound 84] | B (EC1.5 1-25 μM) | ≥ 350 | B (EC1.5 1-25 μM) | ≥ 350 |  |  |  |  | 
Cc1ccc(NC(=O)c2cnn3ccc(-c4ccccc4C(F)(F)F)nc23)nc1 [Compound 618] |  |  |  |  | A (EC1.5<1 μM) | ≥ 350 | B (EC1.5 1-25 μM) | ≥ 350 | 
CS(=O)(=O)c1ccccc1-c1ccc2ncc(C(=O)Nc3cccnc3)n2n1 [Compound 189] | C (EC1.5>25 μM) | < 350 | C (EC1.5>25 μM) | < 350 |  |  |  |  | 
Cc1cc(C)nc(C(=O)Nc2cnc3ccc(N4CC[C@H](F)C4)nn23)c1 [Compound 566] |  |  |  |  |  |  |  |  | TAMRA EC1.5 (SIRT1 [1]; [3]): B (EC1.5 1-25 μM); Emax (SIRT1 [1]; [4]): ≥ 350%; Trp EC1.5 (SIRT1 [2]; [5]): B (EC1.5 1-25 μM); Emax (SIRT1 [2]; [6]): < 350%
O=C(Nc1cnc2ccc(-c3ccccc3C(F)(F)F)nn12)c1cccc(OC[C@H](O)CO)n1 [Compound 236] |  |  |  |  | A (EC1.5<1 μM) | ≥ 350 | A (EC1.5<1 μM) | ≥ 350 | 
O=C(Nc1ccc(CN2CCCC2)nc1)c1cnc2ccc(-c3ccccc3C(F)(F)F)nn12 [Compound 149] | B (EC1.5 1-25 μM) | < 350 | B (EC1.5 1-25 μM) | < 350 |  |  |  |  | 
O=C(Nc1cccc(CN2CCOCC2)n1)c1cnc2ccc(-c3cccc(C(F)(F)F)c3)nn12 [Compound 5] | A (EC1.5<1 μM) | ≥ 350 | B (EC1.5 1-25 μM) | < 350 |  |  |  |  | 
O=C(Nc1cnn2ccc(-c3ccccc3C(F)(F)F)nc12)c1cnc(O)cn1 [Compound 828] |  |  |  |  | A (EC1.5<1 μM) | ≥ 350 | C (EC1.5>25 μM) | < 350 | 
CN(C)c1cccc(NC(=O)c2cnc3ccc(-c4ccccc4C(F)(F)F)nn23)n1 [Compound 104] | A (EC1.5<1 μM) | ≥ 350 | B (EC1.5 1-25 μM) | < 350 |  |  |  |  | 
O=C(Nc1cnc2ccc(-c3ccccc3Cl)nn12)c1cccc(N2CCC2)n1 [Compound 308] |  |  |  |  | A (EC1.5<1 μM) | ≥ 350 | A (EC1.5<1 μM) | < 350 | 
